What all share (experiment): MIC assay (Japan Society of Chemotherapy), antibacterial activity
What all share (format): cell-based

The subject of one assay is E. coli 1573E. To be noted: Escherichia coli, piperacillin used singly, 10^6 CFU/ml, 37° C., 20 hours, read-out: MIC piperacillin alone. The protocol: (§1) The minimal inhibitory concentration (MIC) of piperacillin in the presence of 5 μg/ml of the compounds of the present invention against various bacteria were determined by the MIC assay method of Japan Society of Chemotherapy (Chemotherapy 29(1), pp. 76-79, 1981).
(§2) The MIC value of the various compounds according to the invention and piperacillin, as used singly, were also determined. Each test strain was grown on Mueller Hinton Medium (Difco) and used for inoculation after dilution to concentration of 10^6 CFU/ml. The assay media (Mueller Hintoon Medium) containing piperacillin and the compound of the invention in a series of concentrations were inoculated with the test strain and incubated at 37° C. for 20 hours.
(§3) The minimum concentration at which no more than 5 colonies were observed was determined. […] All the test strains used in the above assay were β-lactamase producers.

A further assay relates to P. mirabillis 60. Particulars: piperacillin used singly; 10^6 CFU/ml; 37° C., 20 hours; read-out: MIC piperacillin alone. The protocol: as §1, §2, §3
Another assay has as its system P. aeruginosa PSE3. To be noted: Pseudomonas aeruginosa, piperacillin used singly, 10^6 CFU/ml, 37° C., 20 hours, read-out: MIC piperacillin alone. Here is the method:
as §1, §2, §3

For another assay, the system named is E. coli TEM1. To be noted: Escherichia coli, TEM1, 20 h, read-out: MIC piperacillin alone. Here is the method: as §1, §2, §3
The test system of another assay is E. coli OXA3. To be noted: Escherichia coli, OXA3, 20 h, read-out: MIC piperacillin alone. The protocol:
as §1, §2, §3

The test system of the next assay is Citrobacter 2046E. Particulars: piperacillin used singly, 10^6 CFU/ml, 37° C., 20 hours, read-out: MIC piperacillin alone. The protocol:
as §1, §2, §3

The next assay concerns Citrobacter 962L. Particulars: piperacillin used singly, 10^6 CFU/ml, 37° C., 20 hours, read-out: MIC piperacillin alone. Here is the method:
as §1, §2, §3

A further assay concerns P. aeruginosa PSE4. Particulars: Pseudomonas aeruginosa, piperacillin used singly, 10^6 CFU/ml, 37° C., 20 hours, read-out: MIC piperacillin alone. Here is the method:
as §1, §2, §3

The test system of another assay is E. coli SHV1. To be noted: Escherichia coli, SHV1, 20 h, read-out: MIC piperacillin alone. The protocol:
as §1, §2, §3

The test system of the next assay is S. aureus 54K. Particulars: Staphylococcus aureus, 20 h, read-out: MIC piperacillin alone. Here is the method:
as §1, §2, §3

In the next assay the test system is K. pneumoniae 101L. To be noted: Klebsiella pneumoniae, piperacillin used singly, 10^6 CFU/ml, 37° C., 20 hours, read-out: MIC piperacillin alone. Here is the method: as §1, §2, §3
Another assay has as its system Serratia 200L. To be noted: piperacillin used singly, 10^6 CFU/ml, 37° C., 20 hours, read-out: MIC piperacillin alone. The protocol:
as §1, §2, §3

The values that follow come from patent publication US4891369A, “2β-Substituted-methylpenicillanic acid derivatives, and salts and esters thereof” (Taiho Pharmaceutical Company, Limited, priority 1986, dated 1990).

Molecules are shown by their SMILES. Values after ≈ are worked out from the molar mass of the structure shown.

Take `CCN1CCN(C(=O)N[C@@H](C(=O)N[C@@H]2C(=O)N3[C@@H]2SC(C)(C)[C@@H]3C(=O)O)c2ccccc2)C(=O)C1=O` [piperacillin]: the MIC in the assay with E. coli 1573E is 6.25 µg/mL (≈ 12.1 µM); in the assay with P. mirabillis 60 it was 1.56 µg/mL (≈ 3.01 µM); in the assay with P. aeruginosa PSE3, 50 µg/mL (≈ 96.6 µM); in the assay with E. coli TEM1 it was 100 µg/mL (≈ 193 µM); with E. coli OXA3, 3.13 µg/mL (≈ 6.05 µM); in the assay with Citrobacter 2046E it was 25 µg/mL (≈ 48.3 µM). Besides, the MIC came out at 100 µg/mL (≈ 193 µM) in the assay on Citrobacter 962L; 200 µg/mL (≈ 386 µM) in the assay on P. aeruginosa PSE4; 25 µg/mL (≈ 48.3 µM) in the assay on E. coli SHV1; 3.13 µg/mL (≈ 6.05 µM) with S. aureus 54K; 100 µg/mL (≈ 193 µM) in the assay on K. pneumoniae 101L; 25 µg/mL (≈ 48.3 µM) in the assay on Serratia 200L.
